PubChem BioAssay AID248 (DTP/NCI, 2004)
“And” between values parts separate entries of the source, which are not always exact repeats. Equal entries are not always repeated. Toxic doses and inconclusive results are not listed. Cut-off read from the data, not from the text of the source: active = T/C of 150% or more; inactive = T/C below 125%.

Tested on: L1210 leukemia ip in BDF1 mice, survival T/C
Test: NCI In Vivo Anticancer Drug Screen. Data for tumor model L1210 Leukemia (intraperitoneal) in B6D2F1 (BDF1) mice
Settings: endpoint: mean survival time, higher = longer survival
Procedure, shortened: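 Mice bearing the transplanted tumor received compound or vehicle. Survival of the treated group was divided by that of the vehicle-treated control group to give the ratio.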

[1] = dose: 100.0 mg/kg/injection, schedule: Q01DX001 (ip), vehicle: carboxymethylcellulose (CMC)
[2] = dose: 200.0 mg/kg/injection, schedule: Q01DX001 (ip), vehicle: carboxymethylcellulose (CMC)
[3] = dose: 400.0 mg/kg/injection, schedule: Q01DX001 (ip), vehicle: carboxymethylcellulose (CMC)
[4] = dose: 100.0 mg/kg/injection, schedule: Q04DX003 (ip), vehicle: saline with Tween-80
[5] = dose: 200.0 mg/kg/injection, schedule: Q04DX003 (ip), vehicle: saline with Tween-80
[6] = dose: 100.0 mg/kg/injection, schedule: Q04DX002 (ip), vehicle: saline with Tween-80
[7] = dose: 200.0 mg/kg/injection, schedule: Q04DX002 (ip), vehicle: saline with Tween-80
[8] = dose: 400.0 mg/kg/injection, schedule: Q04DX002 (ip), vehicle: saline with Tween-80
[9] = dose: 100.0 mg/kg/injection, schedule: Q01DX001 (ip), vehicle: saline
[10] = dose: 200.0 mg/kg/injection, schedule: Q01DX001 (ip), vehicle: saline

Measured: T/C

O=S1(=O)OCc2ccccc21
inactive: dose: 50.0 mg/kg/injection, schedule: Q01DX009 (ip), vehicle: acetone 106 % of control | [1] 100 % of control | dose: 100.0 mg/kg/injection, schedule: Q01DX009 (ip), vehicle: acetone 97 % of control | dose: 100.0 mg/kg/injection, schedule: Q04DX003 (ip), vehicle: saline 100 % of control | [2] 100 % of control | dose: 200.0 mg/kg/injection, schedule: Q04DX003 (ip), vehicle: saline 94 % of control

Cc1ccc2c(ccc(/C=C/c3ccnc4c(O)cccc34)[n+]2C)c1
inactive: dose: 25.0 mg/kg/injection, schedule: Q01DX001 (ip), vehicle: saline 99 % of control | dose: 35.0 mg/kg/injection, schedule: Q01DX001 (ip), vehicle: saline 111 % of control | dose: 55.0 mg/kg/injection, schedule: Q01DX001 (ip), vehicle: saline 119 % of control | dose: 85.0 mg/kg/injection, schedule: Q01DX001 (ip), vehicle: saline 123 % of control | dose: 132.0 mg/kg/injection, schedule: Q01DX001 (ip), vehicle: saline 115 % of control and 121 % of control | dose: 198.0 mg/kg/injection, schedule: Q01DX001 (ip), vehicle: saline 117 % of control

O=C1NC(=O)C2C3C(C(O)(c4ccccc4)c4ccccn4)=CC(/C3=C(\c3ccccc3)c3ccccn3)C12 (stereo unspecified)
inactive: dose: 0.5 mg/kg/injection, schedule: Q01DX010 (ip), vehicle: saline 101 % of control | dose: 1.0 mg/kg/injection, schedule: Q01DX010 (ip), vehicle: saline 93 % of control | dose: 2.0 mg/kg/injection, schedule: Q01DX010 (ip), vehicle: saline 101 % of control | dose: 2.0 mg/kg/injection, schedule: Q01DX010 (oral), vehicle: saline 96 % of control | dose: 4.0 mg/kg/injection, schedule: Q01DX010 (ip), vehicle: saline 93 % of control | dose: 4.0 mg/kg/injection, schedule: Q01DX010 (oral), vehicle: saline 96 % of control | dose: 8.0 mg/kg/injection, schedule: Q01DX010 (oral), vehicle: saline 96 % of control | dose: 16.0 mg/kg/injection, schedule: Q01DX010 (oral), vehicle: saline 96 % of control | [1] 98 % of control | [2] 102 % of control | [3] 104 % of control

CC(=N)c1c(O)cc(C)oc1=O
inactive: [4] 108 % of control | [5] 101 % of control | dose: 400.0 mg/kg/injection, schedule: Q04DX003 (ip), vehicle: saline with Tween-80 92 % of control

COc1ccc(CC(=O)NCCc2ccccc2)cc1
inactive: [1] 96 % of control | [2] 98 % of control | [3] 96 % of control

O=C(O)c1c(O)c2cc([N+](=O)[O-])ccc2oc1=O
inactive: [1] 89 % of control | [6] 95 % of control and 111 % of control | [2] 103 % of control | [7] 114 % of control | [3] 100 % of control | [8] 115 % of control

Nc1c(F)c(F)c(N=Nc2ccccc2)c(F)c1F
inactive: [1] 95 % of control | [2] 96 % of control | [3] 95 % of control

COc1ccc(CC2COC(O)C2Cc2ccc(OC3OC(CO)C(O)C(O)C3O)c(OC)c2)cc1OC (stereo unspecified)
inactive: dose: 100.0 mg/kg/injection, schedule: Q04DX002 (ip), vehicle: saline 102 % of control | dose: 200.0 mg/kg/injection, schedule: Q04DX002 (ip), vehicle: saline 112 % of control | dose: 400.0 mg/kg/injection, schedule: Q04DX002 (ip), vehicle: saline 87 % of control

Cc1ccc(S(=O)(=O)c2ccc(C)cc2)cc1
inactive: dose: 50.0 mg/kg/injection, schedule: Q01DX001 (ip), vehicle: carboxymethylcellulose (CMC) 96 % of control | [1] 111 % of control | [2] 100 % of control | [3] 105 % of control

COc1cccc(NC(=S)NN(C)C)c1
inactive: dose: 100.0 mg/kg/injection, schedule: Q04DX002 (ip), vehicle: Klucel (hydroxypropylcellulose) (HPC) 94 % of control | dose: 200.0 mg/kg/injection, schedule: Q04DX002 (ip), vehicle: Klucel (hydroxypropylcellulose) (HPC) 122 % of control | dose: 400.0 mg/kg/injection, schedule: Q04DX002 (ip), vehicle: Klucel (hydroxypropylcellulose) (HPC) 112 % of control

Cc1noc(N)c1N
inactive: dose: 100.0 mg/kg/injection, schedule: Q01DX009 (ip), vehicle: water 105 % of control | dose: 100.0 mg/kg/injection, schedule: Q04DX003 (ip), vehicle: water 93 % of control | dose: 200.0 mg/kg/injection, schedule: Q01DX009 (ip), vehicle: water 115 % of control | dose: 200.0 mg/kg/injection, schedule: Q04DX003 (ip), vehicle: water 96 % of control | dose: 400.0 mg/kg/injection, schedule: Q01DX009 (ip), vehicle: water 121 % of control | dose: 400.0 mg/kg/injection, schedule: Q04DX003 (ip), vehicle: water 102 % of control

CN(C)CCC(CCC(=O)O)(C(=O)O)c1ccccc1 (stereo unspecified)
inactive: dose: 75.0 mg/kg/injection, schedule: Q01DX001 (ip), vehicle: saline 98 % of control | dose: 150.0 mg/kg/injection, schedule: Q01DX001 (ip), vehicle: saline 96 % of control | dose: 300.0 mg/kg/injection, schedule: Q01DX001 (ip), vehicle: saline 90 % of control

CCC(C)C(=Nc1ccc(Cl)c(Cl)c1)N(C)C (stereo unspecified)
inactive: dose: 55.0 mg/kg/injection, schedule: Q01DX Z (ip), vehicle: methylcellulose (MC) 102 % of control | dose: 83.0 mg/kg/injection, schedule: Q01DX Z (ip), vehicle: methylcellulose (MC) 96 % of control | dose: 125.0 mg/kg/injection, schedule: Q01DX Z (ip), vehicle: methylcellulose (MC) 104 % of control

CCC[CH2][Sn]1([CH2]CCC)[S]CCOB(OCC[S][Sn]([CH2]CCC)([CH2]CCC)[S]CCOB2OCC[S][Sn]([CH2]CCC)([CH2]CCC)[S]CCO2)OCC[S]1
inactive: dose: 6.25 mg/kg/injection, schedule: Q01DX001 (ip), vehicle: Klucel (hydroxypropylcellulose) (HPC) 100 % of control | dose: 12.5 mg/kg/injection, schedule: Q01DX001 (ip), vehicle: Klucel (hydroxypropylcellulose) (HPC) 89 % of control | dose: 25.0 mg/kg/injection, schedule: Q01DX001 (ip), vehicle: Klucel (hydroxypropylcellulose) (HPC) 112 % of control

Cc1ccc(Cl)cc1NC(=O)N1C(C)CCCC1C (stereo unspecified)
inactive: dose: 25.0 mg/kg/injection, schedule: Q01DX009 (ip), vehicle: saline with Tween-80 94 % of control and 110 % of control | dose: 50.0 mg/kg/injection, schedule: Q01DX009 (ip), vehicle: saline with Tween-80 106 % of control and 108 % of control | dose: 50.0 mg/kg/injection, schedule: Q04DX003 (ip), vehicle: saline with Tween-80 100 % of control | dose: 100.0 mg/kg/injection, schedule: Q01DX001 (ip), vehicle: saline with Tween-80 101 % of control and 118 % of control | [9] 102 % of control | [6] 95 % of control and 89 % of control | [4] 104 % of control | dose: 200.0 mg/kg/injection, schedule: Q01DX001 (ip), vehicle: saline with Tween-80 101 % of control and 110 % of control | [10] 108 % of control | [7] 93 % of control and 106 % of control | [5] 109 % of control | dose: 400.0 mg/kg/injection, schedule: Q01DX001 (ip), vehicle: saline with Tween-80 101 % of control | [8] 102 % of control

COc1cccc(-n2cc(C#N)c3c(C)cc(C)nc32)c1
inactive: [9] 87 % of control | [10] 91 % of control | dose: 400.0 mg/kg/injection, schedule: Q01DX001 (ip), vehicle: saline 87 % of control

CC(C)N(C)C(C)(C)CO
inactive: dose: 100.0 mg/kg/injection, schedule: Q04DX003 (ip), vehicle: saline sonified 92 % of control | dose: 200.0 mg/kg/injection, schedule: Q04DX003 (ip), vehicle: saline sonified 106 % of control
